Experimental data as given in paper PMC7033200, “Annexin A1 accounts for an anti-inflammatory binding target of sesamin metabolites” (NPJ Science of Food, 2020).

Legend:
[1] = system: CCl4-treated ANX A1-KO mice; test: CCl4-induced liver damage and inflammation in ANX A1-KO mice; type: in vivo, mouse (C57BL/6J)
Excerpt: ANX A1-deficient mice (C57BL/6J) were generated by homologous recombination at Trans Genic Inc. (Fukuoka, Japan), as shown in Fig. S4. The vector targeting ANX A1 for deleting the coding region (exons 3–6) containing selectable neomycin-resistance (Neo) and PGK promoter genes was used. The targeting vector contained the 3.0 kbp of the 5′ arm flanking sequence and 4.5 kbp of the 3′ arm flanking sequence. The PGK-Neor gene was deleted by crossing with the CAG-flp mouse.[58]
(§1) All protocols for animal procedures were approved by the Ethics Committee of Animal Experiments in accordance with the Internal Regulations on Animal Experiments at Keio University and Suntory Holdings Ltd, which are based on the Law for the Humane Treatment and Management of Animals (Law No. 105, 1 October 1973, as amended on 30 May 2014). Male C57BL/6J wild-type (WT) mice were purchased from CLEA Japan Inc. (Tokyo, Japan). WT and ANX A1-KO mice at 7 to 9 weeks of age received an intraperitoneal injection of vehicle (corn oil, 16.7 mL kg^−1) or CCl4 (50 μL kg^−1). To evaluate the effect of sesamin, vehicle (olive oil, 5 mL kg^−1) or sesamin (25 mg kg^−1) was orally administered twice at 1 h before and 7 h after CCl4 injection. To evaluate the effect of SC1, vehicle (ethanol dissolved in corn oil at a ratio of 1:19, 5 mL kg^−1) or SC1 (50 mg kg^−1) was intraperitoneally administered twice as mentioned above. Mice were euthanized after 12 or 24 h […] CCl4 injection before collecting blood and liver samples. Plasma AST, ALT, or LDH were measured using L-type AST J2, L-type ALT J2 or L-type LD J (Wako, Osaka, Japan), respectively. The liver tissues were fixed with 10% formalin, embedded in paraffin sectioned to 3–4 μm thickness and mounted on slides. Liver sections were de-paraffinized with xylene and re-hydrated with alcohols. The staining was performed with eosin solution for the cytoplasm and Mayer’s haematoxylin solution or monoclonal galectin-3 antibody (1:100, BioLegend, CA, USA). Slides were observed under a light microscope (BX52, Olympus, Japan), and images were analysed using LUMINA VISION (Mitani Corporation, Japan).
(§2) Production of TNFα or MCP-1 in the plasma or liver was measured using a V-PLEX Proinflammatory Panel 1 Mouse Kit or U-PLEX Mouse MCP-1 assay Kit (Meso Scale Diagnostics, USA), respectively. Plasma or liver tissues homogenised in phosphate-buffered saline (Nacalai Tesque) were applied into the pre-coated plate with antibodies against target proteins before labelling with secondary antibodies conjugated to chemiluminescence. The signal intensity was measured using an analyser (SECTOR Imager 6000, Meso Scale Diagnostics, USA).
(§3) Total RNA of the liver was extracted using an RNeasy Mini Kit (Qiagen, USA), and the cDNAs were prepared using High-Capacity cDNA Reverse Transcription Kits (Thermo Fisher Scientific, USA). Quantitative reverse transcription-PCR was performed according to the manufacturer’s instructions using the TaqMan® Gene Expression Assay System (Applied Biosystems, USA) with a 7900HT Fast Real Time PCR System (Applied Biosystems, USA). The levels of target mRNAs were normalised using the expression of the 18S ribosomal RNA. The primer IDs are listed in Supplementary Table 1.

[2] = system: phosphorylated (Ser27) ANX A1 in U937 cells; test: ANX A1 Ser27 phosphorylation in U937 cells (western blotting); type: cell-based, human
Experimental: For analyses of ANX A1 phosphorylation, the U937 cells treated as above were lysed with NP40 lysis buffer (20 mmol L^−1 Tris-HCl (pH 7.5), 150 mmol L^−1 NaCl, 1% NP40), and the lysates (10 μg) were subjected to SDS-PAGE, followed by western blotting using antibodies against ANX A1 or phosphorylated (Ser27) ANX A1 (dilution: 1:1000).

[3] = system: ANX A1 mutants (G210W, F221S, and V251W); test: ITC binding analysis using recombinant ANX A1 point mutants; parameters: species or system human; settings: V251W in contrast with ANX A1 WT
Experimental: (§4) ITC experiments were performed at 298 K with ITC buffer (20 mmol L^−1 Tris-HCl (pH 7.5), 100 mmol L^−1 NaCl, 2% dimethyl sulfoxide) using a MicroCal iTC200 (Malvern). SC1 or SC2 were dissolved at 2 mmol L^−1 with ITC buffer and titrated into 1 μmol L^−1 of ANX A1 protein with or without 2 mmol L^−1 EDTA (for apo-ANX A1) or 3 mmol L^−1 CaCl2 (for Ca^2+-bound ANX A1). The titration was performed by injecting 2 µL of the syringe solution at intervals of 120 s. The binding isotherms were analysed using SEDPHAT.[54]
Supplementary Fi g u re 3. Isothermal titra tion calori met ry analyses using ANX A1 […]
Analyses of binding affinity between SC1 and ANX A1 (wild type (WT) or point mutants (G210W, F221S, or V251W)) using isothermal titration calorimetry ( ITC). […]
(1 picture or pasted object on this page, not shown here)

recombinant ANX V = system: T1, recombinant ANX V; test: Affinity nanobeads binding assay with recombinant annexin V
T1 construct: purchased Abcam

[4] = system: TNFα production in ANX A1 KD U937 cells; test: TNFα production in ANX A1 knockdown U937 cells (ELISA); type: cell-based, human; settings: U937 cells with knocked down ANX A1
Experimental: U937 cells were maintained in RPMI-1640 medium (Gibco/Thermo Fisher Scientific, MA, USA) supplemented with 10% fetal bovine serum. To generate a stable ANX A1-KD cell line, lentivirus vectors encoding a control or shRNA sequence targeting ANX A1 (Supplementary Methods) were transfected into 293FT cells. The lentivirus was prepared according to the manufacturer’s instructions (Invitrogen, MA, USA). U937 cells were infected with the lentivirus, and a stable cell line was selected by maintaining the cells in medium containing 10 μg mL^−1 blasticidin (Invitrogen) for 1 week.
(§5) For enzyme-linked immunosorbent assay (ELISA) assays, U937 cells (control or ANX A1 KD) were seeded on 96-well plates and stimulated by adding 100 nmol L^−1 phorbol myristate acetate (Sigma-Aldrich, MO, USA) for 24 h. The cells were treated for 12 h with LPS (100 ng mL^−1) with or without adding the indicated sesamin, SC1, or SC2 and/or PD98059 concentrations. The cell culture supernatants were collected, and TNFα or ANX A1 production was measured using ELISA (TNFα: R&D Systems; ANX A1: USCN, Wuhan, China) according to the manufacturer’s instructions.

[5] = system: TNFα production in U937 cells; test: TNFα production in PMA/LPS-stimulated U937 cells (ELISA); type: cell-based, human; settings: for IC50: Homo sapiens, U-937, PMA-differentiated U937 cells, LPS, 12 h, ELISA; for inhibition of TNFα production induced by LPS and PMA: U937 cells, dose-dependent
Experimental: as §5

[6] = system: extracellular ANX A1 release from U937 cells; test: Extracellular release of ANX A1 from U937 cells (ELISA); type: cell-based, human; settings: for cellular release of ANX A1: PMA/LPS-treated U937 cells
Experimental: as §5

ANX A1 = target: T2, ANX A1 (Homo sapiens, UniProt P04083); test: Isothermal titration calorimetry (ITC) binding to ANX A1; settings: for dH / dS: 3 mmol L^-1 Ca^2+; for Kd: Ca^2+ form of ANX A1, 3 mmol L^-1 CaCl2, ITC, 298 K, read-out: binding affinity (Kd)
T2 construct: The ANX A1 cDNA fragment, full-length (1–346 a.a.) or deletion mutants; GST (pGEX-6P-1) (N, cleaved yes); made in house; host or cells: Escherichia coli BL21 (DE3)
T2 sequence (P04083 1-346): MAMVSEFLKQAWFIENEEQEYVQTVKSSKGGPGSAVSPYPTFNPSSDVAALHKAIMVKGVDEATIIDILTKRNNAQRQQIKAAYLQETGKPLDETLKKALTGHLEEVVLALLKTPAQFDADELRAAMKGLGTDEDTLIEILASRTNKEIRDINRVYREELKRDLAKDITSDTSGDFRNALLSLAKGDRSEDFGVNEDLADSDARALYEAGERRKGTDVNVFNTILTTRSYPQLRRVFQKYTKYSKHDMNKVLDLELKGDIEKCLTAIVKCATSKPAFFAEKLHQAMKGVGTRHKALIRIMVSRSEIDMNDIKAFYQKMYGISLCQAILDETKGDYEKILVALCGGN
Experimental: as §4

CCl4-treated WT mice = test: CCl4-induced liver damage and inflammation in WT mice; type: in vivo, mouse (C57BL/6J)
Excerpt: as §1, §2, §3

[7] = SC1 50 mg kg^−1 intraperitoneally twice, 12 h after CCl4, ANX A1-null
[8] = SC1 50 mg kg^−1 intraperitoneally twice, 12 h after CCl4, WT
[9] = SC1 50 mg kg^−1 intraperitoneally twice, 24 h, WT
[10] = sesamin 25 mg kg^−1 orally twice, 24 h, ANX A1-null
[11] = sesamin 25 mg kg^−1 twice, 12 h, qPCR, ANX A1-null
[12] = sesamin 25 mg kg^−1 twice, 12 h after CCl4, ANX A1-null
[13] = sesamin 25 mg kg^−1 twice, 24 h, qPCR, ANX A1-null
[14] = sesamin 25 mg kg^−1 twice, 12 h, qPCR, WT
[15] = sesamin 25 mg kg^−1 twice, 12 h after CCl4, WT
[16] = sesamin 25 mg kg^−1 twice, 24 h, qPCR, WT

## Oc1ccc(C2OCC3C(c4ccc5c(c4)OCO5)OCC23)cc1O (stereo not drawn) [SC1, (7α,7′α,8α,8′α)-3′,4′-methylenedioxy-7,9′:7′,9-diepoxylignane-3,4-diol]
[1]; [7]
  MCP-1 expression in the liver: no effect was observed
  TNFα expression in the liver: no effect was observed
[1]; SC1 50 mg kg^−1 intraperitoneally twice, 24 h, ANX A1-null
  plasma AST: not
[2]; after PMA and LPS treatment, dose-dependent, 12 h
  ANX A1 phosphorylation at Ser27: significantly induced phosphorylation
[2]; without PMA and LPS stimulation
  ANX A1 phosphorylation at Ser27: not observed
[3]
  binding activity to SC1 of ANX A1 mutants: disrupted the binding activity
Recombinant ANX V
  binding of recombinant ANX V to beads: no binding
[4]
  inhibitory effects on TNFα production in ANX A1 knockdown cells: disappeared
[5]
  IC50: 2.2 µM
  inhibition of TNFα production induced by LPS and PMA: significantly inhibited
[6]
  cellular release of ANX A1: significantly enhanced
ANX A1; ITC
  dH: -452.11 kcal/mol
  dS: -1491.41 cal/mol K
ANX A1
  Kd: 2.77 µM
ANX A1; Ca^2+ free (EDTA), ITC
  binding to apo-ANX A1: No binding
CCl4-treated WT mice; [8]
  MCP-1 expression in the liver: suppressed
  TNFα expression in the liver: suppressed
CCl4-treated WT mice; [9]
  plasma ALT: suppressed
  plasma AST: suppressed
  plasma LDH: suppressed

## COc1cccc(-c2cc(=O)c3ccccc3o2)c1N [PD98059, reference compound]
[2]; treated 1 h prior to LPS treatment
  effect on SC1-induced phosphorylation of ANX A1: suppressed
[6]; treated 1 h prior to LPS, dose-dependent
  effect on up-regulation of ANX A1 release: inhibited

## Oc1ccc(C2OCC3C(c4ccc(O)c(O)c4)OCC23)cc1O (stereo not drawn) [SC2, (7α,7′α,8α,8′α)-7,9′:7′,9-diepoxylignane-3,3′,4,4′-tetraol]
[4]
  inhibitory effects on TNFα production in ANX A1 knockdown cells: disappeared
[5]
  IC50: 10.3 µM
  inhibition of TNFα production induced by LPS and PMA: significantly inhibited
[6]
  cellular release of ANX A1: significantly enhanced
ANX A1; ITC
  dH: -308.15 kcal/mol
  dS: -1010.16 cal/mol K
ANX A1
  Kd: 8.05 µM

## c1cc2c(cc1[C@H]1OC[C@H]3[C@@H]1CO[C@@H]3c1ccc3c(c1)OCO3)OCO2 [Sesamin, (7α,7′α,8α,8′α)-3,4:3′,4′-bis(methylenedioxy)-7,9′:7′,9-diepoxylignane]
[1]; [10]
  plasma ALT: not observed
  plasma LDH: not observed
[1]; sesamin 25 mg kg^−1 orally twice, H&E, ANX A1-null
  liver injury around the central vein (histology): not
[1]; [11]
  MCP-1 mRNA expression in the liver: not observed
  TNFα mRNA expression in the liver: not observed
  galectin-3 mRNA expression in the liver: not observed
[1]; [12]
  MCP-1 protein in the plasma: not
  TNFα protein in the liver: not
  TNFα protein in the plasma: not
[1]; sesamin 25 mg kg^−1 twice, 24 h, histology, ANX A1-null
  accumulation of galectin-3-positive cells in the liver: not
[1]; [13]
  liver mRNA expression of Col1a1: not
  liver mRNA expression of αSMA: not
[5]
  inhibition of TNFα production induced by LPS and PMA: little inhibitory effect
[6]
  cellular release of ANX A1: not
ANX A1; ITC
  binding activity with ANX A1 using ITC analysis: unable to detect any binding activity
CCl4-treated WT mice; sesamin 25 mg kg^−1 orally twice (1 h before, 7 h after CCl4), 24 h, WT
  plasma ALT: significantly suppressed
CCl4-treated WT mice; sesamin 25 mg kg^−1 orally twice, 24 h, WT
  plasma LDH: significantly suppressed
CCl4-treated WT mice; sesamin 25 mg kg^−1 orally twice, H&E, WT
  liver injury around the central vein (histology): suppressed liver injury
CCl4-treated WT mice; [14]
  MCP-1 mRNA expression in the liver: significantly suppressed
  TNFα mRNA expression in the liver: significantly suppressed
  galectin-3 mRNA expression in the liver: significantly suppressed
CCl4-treated WT mice; [15]
  MCP-1 protein in the liver: significantly suppressed
  MCP-1 protein in the plasma: significantly suppressed
  TNFα protein in the liver: significantly suppressed
  TNFα protein in the plasma: significantly suppressed
CCl4-treated WT mice; sesamin 25 mg kg^−1 twice, 24 h, histology, WT
  accumulation of galectin-3-positive cells in the liver: suppressed
CCl4-treated WT mice; [16]
  liver mRNA expression of Col1a1: suppressed
  liver mRNA expression of αSMA: suppressed
